# Measurements: patent publication US9199962B2, “Substituted azaheterocycles for the treatment of cancer” (Merck Patent GmbH, priority 2011, dated 2015)
# Target: T1, GST-FAK (N-terminal GST fusion with truncated human FAK (376-1052 (end) amino acids)) (Homo sapiens, UniProt Q05397)
# T1 construct: truncated human FAK (376-1052 (end) amino acids)
# Assay: Biochemical enzyme assay for FAK activity (Caliper LC3000 mobility shift)
# Details: Table 5; 100 uM ATP; read-out: FAK IC50
# In short: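 Inhibitor dose series in DMSO were incubated 90 min at 25 °C with truncated GST-tagged human FAK (0.067 ng/µl) and FITC-labelled peptide substrate (1 µM), with ATP at 100 µM and FERM peptide at 1 mM (pH 7.5 HEPES). After EDTA quench, phosphorylated and unphosphorylated peptides were resolved electrophoretically. Percent conversion was fitted for IC50.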
# T1 sequence (Q05397 376-1052): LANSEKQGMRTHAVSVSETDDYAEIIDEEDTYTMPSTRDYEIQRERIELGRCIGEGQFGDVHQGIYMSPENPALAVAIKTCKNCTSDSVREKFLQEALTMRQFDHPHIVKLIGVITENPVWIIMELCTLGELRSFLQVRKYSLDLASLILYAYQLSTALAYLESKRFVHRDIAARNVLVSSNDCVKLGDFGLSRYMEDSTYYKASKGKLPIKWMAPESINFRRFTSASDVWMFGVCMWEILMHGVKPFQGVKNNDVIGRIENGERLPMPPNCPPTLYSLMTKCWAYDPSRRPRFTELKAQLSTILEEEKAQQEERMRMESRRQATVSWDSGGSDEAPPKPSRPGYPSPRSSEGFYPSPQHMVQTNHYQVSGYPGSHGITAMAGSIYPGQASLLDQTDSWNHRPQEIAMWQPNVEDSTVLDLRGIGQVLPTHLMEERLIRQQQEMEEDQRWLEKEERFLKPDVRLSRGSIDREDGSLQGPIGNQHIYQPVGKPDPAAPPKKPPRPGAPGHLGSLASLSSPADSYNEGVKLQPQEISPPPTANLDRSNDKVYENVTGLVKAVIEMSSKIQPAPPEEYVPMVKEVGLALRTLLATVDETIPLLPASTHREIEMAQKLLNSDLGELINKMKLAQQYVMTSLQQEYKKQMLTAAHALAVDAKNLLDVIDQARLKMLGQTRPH
row,Structure (SMILES),IC50
1,"COc1cncc(-c2nccc(NCc3ccccc3-c3ccccc3S(C)(=O)=O)n2)c1 [Compound 193, (2′-Methanesulfonyl-biphenyl-2-ylmethyl)-[2-(5-methoxy-pyridin-3-yl)-pyrimidin-4-yl]-amine]",> 10 µM
2,"COc1cncc(-c2nccc(NCCc3cccc(C(F)(F)F)c3)n2)c1 [Compound 194, [2-(5-Methoxy-pyridin-3-yl)-pyrimidin-4-yl]-[2-(3-trifluoromethyl-phenyl)-ethyl]-amine]",> 10 µM
3,"Fc1ccc(CCNc2ccnc(-c3cncc(C(F)(F)F)c3)n2)cc1 [Compound 195, [2-(4-Fluoro-phenyl)-ethyl]-[2-(5-trifluoromethyl-pyridin-3-yl)-pyrimidin-4-yl]-amine]",0.1 to 1 µM
4,"CS(=O)(=O)c1ccccc1-c1ccccc1CNc1ccnc(-c2cncc(C(F)(F)F)c2)n1 [Compound 196, (2′-Methanesulfonyl-biphenyl-2-ylmethyl)-[2-(5-trifluoromethyl-pyridin-3-yl)-pyrimidin-4-yl]-amine]",1 to 10 µM
5,"CN1CCCC1CCNc1ccnc(-c2cncc(C(F)(F)F)c2)n1 (stereo not shown) [Compound 197, [2-(1-Methyl-pyrrolidin-2-yl)-ethyl]-[2-(5-trifluoromethyl-pyridin-3-yl)-pyrimidin-4-yl]-amine]",> 10 µM
6,"FC(F)(F)c1cncc(-c2nccc(NCCc3ccccc3Cl)n2)c1 [Compound 198, [2-(2-Chloro-phenyl)-ethyl]-[2-(5-trifluoromethyl-pyridin-3-yl)-pyrimidin-4-yl]-amine]",1 to 10 µM
7,"COc1cncc(-c2nccc(NCCN3CCCC3=O)n2)c1 [Compound 199, 1-{2-[2-(5-Methoxy-pyridin-3-yl)-pyrimidin-4-ylamino]-ethyl}-pyrrolidin-2-one]",> 10 µM
8,"O=C1CCCN1CCNc1ccnc(-c2cncc(C(F)(F)F)c2)n1 [Compound 200, 1-{2-[2-(5-Trifluoromethyl-pyridin-3-yl)-pyrimidin-4-ylamino]-ethyl}-pyrrolidin-2-one]",> 10 µM
9,"COc1ccccc1CCNc1ccnc(-c2cncc(C(F)(F)F)c2)n1 [Compound 201, [2-(2-Methoxy-phenyl)-ethyl]-[2-(5-trifluoromethyl-pyridin-3-yl)-pyrimidin-4-yl]-amine]",1 to 10 µM
10,"COc1cncc(-c2nccc(NCCc3ccccc3OC)n2)c1 [Compound 202, [2-(2-Methoxy-phenyl)-ethyl]-[2-(5-methoxy-pyridin-3-yl)-pyrimidin-4-yl]-amine]",1 to 10 µM
11,"COc1cncc(-c2nccc(NCCc3ccccc3Cl)n2)c1 [Compound 203, [2-(2-Chloro-phenyl)-ethyl]-[2-(5-methoxy-pyridin-3-yl)-pyrimidin-4-yl]-amine]",1 to 10 µM
12,"COc1cncc(-c2nccc(NCc3ccc(F)cc3C(F)(F)F)n2)c1 [Compound 204, (4-Fluoro-2-trifluoromethyl-benzyl)-[2-(5-methoxy-pyridin-3-yl)-pyrimidin-4-yl]-amine]",< 0.1 µM
13,"Fc1ccccc1CNc1ccnc(-c2cccnc2F)n1 [Compound 205, (2-Fluoro-benzyl)-[2-(2-fluoro-pyridin-3-yl)-pyrimidin-4-yl]-amine]",1 to 10 µM
14,"Cc1cc(F)ncc1-c1nccc(NCc2ccccc2F)n1 [Compound 206, (2-Fluoro-benzyl)-[2-(6-fluoro-4-methyl-pyridin-3-yl)-pyrimidin-4-yl]-amine]",> 10 µM
15,"Fc1ccc(-c2nccc(NCc3ccccc3F)n2)cn1 [Compound 207, (2-Fluoro-benzyl)-[2-(6-fluoro-pyridin-3-yl)-pyrimidin-4-yl]-amine]",> 10 µM
16,"Fc1cccnc1CNc1ccnc(-c2cncc(C(F)(F)F)c2)n1 [Compound 208, (3-Fluoro-pyridin-2-ylmethyl)-[2-(5-trifluoromethyl-pyridin-3-yl)-pyrimidin-4-yl]-amine]",0.1 to 1 µM
17,"Fc1cnc(CNc2ccnc(-c3cncc(C(F)(F)F)c3)n2)c(F)c1 [Compound 209, (3,5-Difluoro-pyridin-2-ylmethyl)-[2-(5-trifluoromethyl-pyridin-3-yl)-pyrimidin-4-yl]-amine]",< 0.1 µM
18,"Fc1ccc(CNc2ccnc(-c3cccnc3)n2)c(F)c1 [Compound 210, (2,4-Difluoro-benzyl)-(2-pyridin-3-yl-pyrimidin-4-yl)-amine]",0.1 to 1 µM
19,"Cc1cc(F)ncc1-c1nccc(NCc2ccc(F)cc2F)n1 [Compound 211, (2,4-Difluoro-benzyl)-[2-(6-fluoro-4-methyl-pyridin-3-yl)-pyrimidin-4-yl]-amine]",> 10 µM
20,"Fc1ccc(CNc2ccnc(-c3cccnc3F)n2)c(F)c1 [Compound 212, (2,4-Difluoro-benzyl)-[2-(2-fluoro-pyridin-3-yl)-pyrimidin-4-yl]-amine]",1 to 10 µM
21,"N#Cc1cncc(-c2nccc(NCc3ncccc3F)n2)c1 [Compound 213, 5-{4-[(3-Fluoro-pyridin-2-ylmethyl)-amino]-pyrimidin-2-yl}-nicotinonitrile]",1 to 10 µM
22,"COc1cncc(-c2nccc(NCc3ncccc3F)n2)c1 [Compound 214, (3-Fluoro-pyridin-2-ylmethyl)-[2-(5-methoxy-pyridin-3-yl)-pyrimidin-4-yl]-amine]",0.1 to 1 µM

row,Structure (SMILES),IC50
1,"N#Cc1cncc(-c2ncc(C(F)(F)F)c(NCc3ccc(F)cc3F)n2)c1 [Compound 215, 5-[4-(2,4-Difluoro-benzylamino)-5-trifluoromethyl-pyrimidin-2-yl]-nicotinonitrile]",> 10 µM
2,"COc1cncc(-c2nccc(NCc3ccc4[nH]c(=O)[nH]c4c3)n2)c1 [Compound 216, 5-{[2-(5-Methoxy-pyridin-3-yl)-pyrimidin-4-ylamino]-methyl}-1,3-dihydro-benzoimidazol-2-one]",> 10 µM
3,"Fc1ccc(CNc2ccnc(-c3ccc(F)nc3)n2)c(F)c1 [Compound 217, (2,4-Difluoro-benzyl)-[2-(6-fluoro-pyridin-3-yl)-pyrimidin-4-yl]-amine]",> 10 µM
4,"COc1cncc(-c2nccc(NCc3cc[nH]n3)n2)c1 [Compound 218, [2-(5-Methoxy-pyridin-3-yl)-pyrimidin-4-yl]-(1H-pyrazol-3-ylmethyl)-amine]",1 to 10 µM
5,"FC(F)(F)c1cncc(-c2nccc(NCc3ccccn3)n2)c1 [Compound 219, Pyridin-2-ylmethyl-[2-(5-trifluoromethyl-pyridin-3-yl)-pyrimidin-4-yl]-amine]",0.1 to 1 µM
6,"N#Cc1cncc(-c2nccc(NCc3ccccn3)n2)c1 [Compound 220, 5-{4-[(Pyridin-2-ylmethyl)-amino]-pyrimidin-2-yl}-nicotinonitrile]",1 to 10 µM
7,"COc1cncc(-c2nccc(NCc3csc(-c4ccccc4)n3)n2)c1 [Compound 221, [2-(5-Methoxy-pyridin-3-yl)-pyrimidin-4-yl]-(2-phenyl-thiazol-4-ylmethyl)-amine]",> 10 µM
8,"COc1cncc(-c2nccc(NCc3cc(C)nn3C)n2)c1 [Compound 222, (2,5-Dimethyl-2H-pyrazol-3-ylmethyl)-[2-(5-methoxy-pyridin-3-yl)-pyrimidin-4-yl]-amine]",> 10 µM
9,"COc1cncc(-c2nccc(NCc3ccc(F)cc3F)n2)c1 [Compound 223, (2,4-Difluoro-benzyl)-[2-(5-methoxy-pyridin-3-yl)-pyrimidin-4-yl]-amine]",< 0.1 µM
10,"COc1cncc(-c2nccc(NCc3cc(F)c(F)cc3F)n2)c1 [Compound 224, [2-(5-Methoxy-pyridin-3-yl)-pyrimidin-4-yl]-(2,4,5-trifluoro-benzyl)-amine]",0.1 to 1 µM
11,"COc1cncc(-c2nccc(NCc3cccc(C#N)c3)n2)c1 [Compound 225, 3-{[2-(5-Methoxy-pyridin-3-yl)-pyrimidin-4-ylamino]-methyl}-benzonitrile]",1 to 10 µM
12,"COc1cncc(-c2nccc(NCc3cc(F)ccc3F)n2)c1 [Compound 226, (2,5-Difluoro-benzyl)-[2-(5-methoxy-pyridin-3-yl)-pyrimidin-4-yl]-amine]",0.1 to 1 µM
13,"COc1cncc(-c2nccc(NCc3ccccc3)n2)c1 [Compound 227, Benzyl-[2-(5-methoxy-pyridin-3-yl)-pyrimidin-4-yl]-amine]",0.1 to 1 µM
14,"COc1cncc(-c2nccc(NCc3ccccn3)n2)c1 [Compound 228, [2-(5-Methoxy-pyridin-3-yl)-pyrimidin-4-yl]-pyridin-2-ylmethyl-amine]",0.1 to 1 µM
15,"COc1cncc(-c2nccc(NCc3cccnc3)n2)c1 [Compound 229, [2-(5-Methoxy-pyridin-3-yl)-pyrimidin-4-yl]-pyridin-3-ylmethyl-amine]",1 to 10 µM
16,"COc1cncc(-c2nccc(NCc3ccncc3)n2)c1 [Compound 230, [2-(5-Methoxy-pyridin-3-yl)-pyrimidin-4-yl]-pyridin-4-ylmethyl-amine]",> 10 µM
17,"Fc1ccc(CNc2cccc(-c3cncc(C(F)(F)F)c3)n2)c(F)c1 [Compound 231, (2,4-Difluoro-benzyl)-(5′-trifluoromethyl-[2,3′]bipyridinyl-6-yl)-amine]",< 0.1 µM
18,"COc1cc(NC(=O)c2cc(NCc3ccc(F)cc3F)nc(-c3cncc(C(F)(F)F)c3)n2)ccn1 [Compound 232, 6-(2,4-Difluoro-benzylamino)-2-(5-trifluoromethyl-pyridin-3-yl)-pyrimidine-4-carboxylic acid (2-methoxy-pyridin-4-yl)-amide]",1 to 10 µM
19,"COc1ncccc1NC(=O)c1cc(NCc2ccc(F)cc2F)nc(-c2cncc(C(F)(F)F)c2)n1 [Compound 233, 6-(2,4-Difluoro-benzylamino)-2-(5-trifluoromethyl-pyridin-3-yl)-pyrimidine-4-carboxylic acid (2-methoxy-pyridin-3-yl)-amide]",0.1 to 1 µM
20,"CNC(=O)c1ccccc1CNc1ccnc(-c2cncc(C(F)(F)F)c2)n1 [Compound 234, N-Methyl-2-{[2-(5-trifluoromethyl-pyridin-3-yl)-pyrimidin-4-ylamino]-methyl}-benzamide]",1 to 10 µM
21,"O=C1c2ccccc2CN1c1ccnc(-c2cncc(C(F)(F)F)c2)n1 [Compound 235, 2-[2-(5-Trifluoromethyl-pyridin-3-yl)-pyrimidin-4-yl]-2,3-dihydro-isoindol-1-one]",> 10 µM
